{"source": "patent US20060063784A1", "about": "“Method of using substituted pyrazolo [1,5-a] pyrimidines” (priority 2004, published 2006)"}
{"tested_on": "80S14 (p21-deficient) cells", "test": "Cytotoxicity assay using isogenic cell lines: IC50 in 80S14 (p21-deficient) cells, SRB", "format": "cell-based, human", "conditions": "80S14 (p21-deficient) cells, 5 days, SRB; class symbols; read-out: IC50 for 80S14", "in_short": "(§1)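 IC50 is the concentration halving proliferation relative to untreated controls, read from SRB absorbance (560 nm) after TCA fixation. Test agent dilutions (5 pM–50 μM or 170 pg/ml–10 μg/ml) were left on p21-deficient 80S14 cells (12,000/well, pre-incubated overnight) for 5 days at 37 °C.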", "units": {"IC50": "µM"}}
{"compound": "N,N′-diethyl-3-[3-(2-thienylcarbonyl)-pyrazolo[1,5-a]pyrimidin-7-yl]-benzamide [Example 248]", "IC50": "10 to 50"}
{"compound": "CN(C=O)c1cccc(-c2ccnc3c(C(=O)c4cccs4)cnn23)c1", "note": "[Example 261, Formamide, N-methyl-N-[3-[3-(2-thienylcarbonyl)pyrazolo[1,5-a]pyrimidin-7-yl]phenyl}]", "IC50": "1 to 10"}
{"tested_on": "80S14 (p21-deficient) cells", "test": "Cytotoxicity assay using isogenic cell lines: IC50 in 80S14 (p21-deficient) cells, SRB", "format": "cell-based, human", "conditions": "Homo sapiens, 80S14, 120 h, read-out: IC50 for 80S14 (uM)", "in_short": "as §1", "units": {"IC50": "µM"}}
{"compound": "CC(=O)N(C)c1cccc(-c2ccnc3c(C(=O)c4cccs4)cnn23)c1", "note": "[Example 238, N-Methyl-N-[3-[3-(2-thienylcarbonyl)-pyrazolo[1,5-a]pyrimidin-7-yl]phenyl}-acetamide]", "IC50": "10 to 50"}
{"compound": "CCC(=O)Nc1cccc(-c2ccnc3c(C(=O)c4cccs4)cnn23)c1", "note": "[Example 251, N-[3-[3-(2-Thienylcarbonyl)pyrazolo[1,5-a]pyrimidin-7-yl]phenyl}-propanamide]", "IC50": "< 1"}
{"tested_on": "80S14 (p21-deficient) cells", "test": "Cytotoxicity assay using isogenic cell lines: IC50 in 80S14 (p21-deficient) cells, SRB", "format": "cell-based, human", "conditions": "Homo sapiens, 80S14, 120 h, read-out: IC50 for 80SI4 (uM)", "in_short": "as §1", "units": {"IC50": "µM"}}
{"compound": "CC(C)CC(=O)Nc1cccc(-c2ccnc3c(C(=O)c4cccs4)cnn23)c1", "note": "[Example 47, 3-methyl-N-{3-[3-(thien-2-ylcarbonyl)pyrazolo[1,5-a]pyrimidin-7-yl]phenyl}butanamide]", "IC50": "< 1"}
{"compound": "CC(C)(C)C(=O)Nc1cccc(-c2ccnc3c(C(=O)c4cccs4)cnn23)c1", "note": "[Example 48, 2,2-dimethyl-N-{3-[3-(thien-2-ylcarbonyl)pyrazolo[1,5-a]pyrimidin-7-yl]phenyl}propanamide]", "IC50": "< 1"}
{"compound": "CCCC(C)C(=O)Nc1cccc(-c2ccnc3c(C(=O)c4cccs4)cnn23)c1", "note": "(stereo not shown) [Example 154, 2-methyl-N-{3-[3-(thien-2-ylcarbonyl)pyrazolo[1,5-a]pyrimidin-7-yl]phenyl}pentanamide]", "IC50": "< 1"}
{"compound": "Cc1ccc(OC(=O)Nc2cccc(-c3ccnc4c(C(=O)c5cccs5)cnn34)c2)cc1", "note": "[Example 23, 4-methylphenyl 3-[3-(thien-2-ylcarbonyl)pyrazolo[1,5-a]pyrimidin-7-yl]phenylcarbamate]", "IC50": "10 to 50"}
{"compound": "C=CC(C)OC(=O)Nc1cccc(-c2ccnc3c(C(=O)c4cccs4)cnn23)c1", "note": "(stereo not shown) [Example 182, 1-methylprop-2-enyl 3-[3-(thien-2-ylcarbonyl)pyrazolo[1,5-a]pyrimidin-7-yl]phenylcarbamate]", "IC50": "< 1"}
{"tested_on": "80S14 (p21-deficient) cells", "test": "Cytotoxicity assay using isogenic cell lines: IC50 in 80S14 (p21-deficient) cells, SRB", "format": "cell-based, human", "conditions": "Homo sapiens, 120 h; 80S14 (p21-deficient) cells, 5 days, SRB; class symbols; read-out: IC50 for 80S14", "in_short": "as §1", "units": {"IC50": "µM"}}
{"compound": "C/C(=C\\c1ccc(C(C)(C)C)cc1)CNc1cccc(-c2ccnc3c(C(=O)c4cccs4)cnn23)c1", "note": "[Example 413, [7-(3-{[(2E)-3-(4-tert-Butylphenyl)-2-methylprop-2-enyl]amino}phenyl)pyrazolo[1,5-a]pyrimidin-3-yl](thien-2-yl)methanone]", "IC50": "10 to 50"}
{"compound": "O=C(Nc1cccc(-c2ccnc3c(C(=O)c4cccs4)cnn23)c1)c1cccc(Br)c1", "note": "[Example 286, 3-Bromo-N-{3-[3-(2-thienylcarbonyl)pyrazolo[1,5-a]pyrimidin-7-yl]phenyl}benzamide]", "IC50": "< 1"}
{"compound": "CCN(C(=O)C1CC1)c1cccc(-c2ccnc3c(C(=O)c4ccccc4)cnn23)c1", "note": "[Example 253, N-[3-(3-Benzoylpyrazolo[1,5-a]pyrimidin-7-yl)phenyl]-N-ethyl-cyclopropanecarboxamide]", "IC50": "10 to 50"}
{"compound": "CC(C)CC(=O)Nc1cccc(-c2ccnc3c(-c4cccs4)cnn23)c1", "note": "[Example 333, 3-Methyl-N-[3-(3-thien-2-ylpyrazolo[1,5-a]pyrimidin-7-yl)phenyl]butanamide]", "IC50": "10 to 50"}
{"compound": "CN(C(=O)C1CCC1)c1cccc(-c2ccnc3c(C#N)cnn23)c1", "note": "[Example 234, N-[3-(3-Cyanopyrazolo[1,5-a]-pyrimidin-7-yl)phenyl]-N-methyl-cyclobutanecarboxamide]", "IC50": "1 to 10"}
{"compound": "O=C(Nc1cccc(-c2ccnc3c(C(=O)c4cccs4)cnn23)c1)c1ccc(Cl)cc1Cl", "note": "[Example 289, 2,4-Dichloro-N-{3-[3-(2-thienylcarbonyl)pyrazolo[1,5-a]pyrimidin-7-yl]phenyl}benzamide]", "IC50": "1 to 10"}
{"compound": "O=C(c1ccccc1)c1cnn2c(-c3cccc(NC(=O)C4CC4)c3)ccnc12", "note": "[Example 230, N-[3-(3-Benzoylpyrazolo-[1,5-a]pyrimidin-7-yl)phenyl]-cyclopropanecarboxamide]", "IC50": "1 to 10"}
{"compound": "O=C(c1ccco1)c1cnn2c(-c3cccc(NC(=O)C4CCCC4)c3)ccnc12", "note": "[Example 302, N-{3-[3-(2-Furoyl)pyrazolo[1,5-a]pyrimidin-7-yl]phenyl}cyclopentanecarboxamide]", "IC50": "< 1"}
{"compound": "CC(C)CC(=O)Nc1cccc(-c2ccnc3c(-c4cccc(CN(C)C)c4)cnn23)c1", "note": "[Example 497, N-[3-(3-{3-[(Dimethylamino)methyl]phenyl}pyrazolo[1,5-a]pyrimidin-7-yl)phenyl]-3-methylbutanamide]", "IC50": "10 to 50"}
{"compound": "CCN(C(=O)C1CC1)c1cccc(-c2ccnc3c(C#N)cnn23)c1", "note": "[Example 256, N-[3-(3-Cyanopyrazolo[1,5-a]pyrimidin-7-yl)phenyl]-N-ethyl-cyclopropanecarboxamide]", "IC50": "10 to 50"}
{"compound": "CCOc1cccc(-c2ccnc3c(C(=O)c4cccs4)cnn23)c1", "note": "[Example 263, [7-(3-Ethoxyphenyl)pyrazolo[1,5-a]pyrimidin-3-yl]-2-thienyl-methanone]", "IC50": "1 to 10"}
{"compound": "O=C(c1ccccc1)c1cnn2c(-c3cccc(N4CCCC4=O)c3)ccnc12", "note": "[Example 229, 1-[3-(3-Benzoylpyrazolo[1,5-a]-pyrimidin-7-yl)phenyl]-2-pyrrolidinone]", "IC50": "10 to 50"}
{"compound": "Cc1nn2c(-c3cccc(NC(=O)OC(C)C)c3)ccnc2c1C(=O)c1cccs1", "note": "[Example 308, Isopropyl 3-[2-methyl-3-(2-thienylcarbonyl)pyrazolo[1,5-a]pyrimidin-7-yl]phenylcarbamate]", "IC50": "10 to 50"}
{"compound": "CN(C(=O)C1CCC1)c1cccc(-c2ccnc3c(C(=O)c4ccco4)cnn23)c1", "note": "[Example 233, N-[3-[3-(2-Furanylcarbonyl)-pyrazolo[1,5-a]pyrimidin-7-yl]phenyl}-N-methyl-cyclobutanecarboxamide]", "IC50": "10 to 50"}
{"tested_on": "80S14 (p21-deficient) cells", "test": "Cytotoxicity assay using isogenic cell lines: IC50 in 80S14 (p21-deficient) cells, SRB", "format": "cell-based, human", "conditions": "Homo sapiens, 120 h; 80S14 p21-deficient cells, 5 days incubation, SRB; read-out: IC50 for 80SI4", "in_short": "as §1", "units": {"IC50": "µM"}}
{"compound": "Cc1ccc(S(=O)(=O)Nc2cccc(-c3ccnc4c(C(=O)c5cccs5)cnn34)c2)cc1", "note": "[Example 32, 4-methyl-N-{3-[3-(thien-2-ylcarbonyl)pyrazolo[1,5-a]pyrimidin-7-yl]phenyl}benzenesulfonamide]", "IC50": "< 1"}
{"compound": "O=C(Nc1cccc(-c2ccnc3c(C(=O)c4cccs4)cnn23)c1)c1ccc(F)cc1", "note": "[Example 112, 4-fluoro-N-{3-[3-(thien-2-ylcarbonyl)pyrazolo[1,5-a]pyrimidin-7-yl]phenyl}benzamide]", "IC50": "< 1"}
{"compound": "Cc1cnc2c(C(=O)c3cccs3)cnn2c1-c1cccc(NC(=O)OCCCl)c1", "note": "[Example 212, 2-chloroethyl 3-[6-methyl-3-(thien-2-ylcarbonyl)pyrazolo[1,5-a]pyrimidin-7-yl]phenylcarbamate]", "IC50": "10 to 50"}
{"compound": "CC1(C(=O)Nc2cccc(-c3ccnc4c(C(=O)c5cccs5)cnn34)c2)CCCCC1", "note": "[Example 143, 1-methyl-N-{3-[3-(thien-2-ylcarbonyl)pyrazolo[1,5-a]pyrimidin-7-yl]phenyl}cyclohexanecarboxamide]", "IC50": "< 1"}
{"compound": "C=CCCOC(=O)Nc1cccc(-c2c(C)cnc3c(C(=O)c4cccs4)cnn23)c1", "note": "[Example 213, but-3-enyl 3-[6-methyl-3-(thien-2-ylcarbonyl)pyrazolo[1,5-a]pyrimidin-7-yl]phenylcarbamate]", "IC50": "10 to 50"}
{"compound": "CS(=O)(=O)Nc1cccc(-c2ccnc3c(C(=O)c4cccs4)cnn23)c1", "note": "[Example 27, N-{3-[3-(thien-2-ylcarbonyl)pyrazolo[1,5-a]pyrimidin-7-yl]phenyl} methanesulfonamide]", "IC50": "1 to 10"}
{"compound": "O=C(CNC(=O)C1CCCC1)Nc1cccc(-c2ccnc3c(C(=O)c4cccs4)cnn23)c1", "note": "[Example 128, N-[2-oxo-2-({3-[3-(thien-2-ylcarbonyl)pyrazolo[1,5-a]pyrimidin-7-yl]phenyl}amino)ethyl]cyclopentanecarboxamide]", "IC50": "1 to 10"}
{"compound": "CC(C)CC(C)OC(=O)Nc1cccc(-c2ccnc3c(C(=O)c4cccs4)cnn23)c1", "note": "(stereo not shown) [Example 185, 1,3-dimethylbutyl3-[3-(thien-2-ylcarbonyl)pyrazolo[1,5-a]pyrimidin-7-yl]phenylcarbamate]", "IC50": "1 to 10"}
{"compound": "CCC(OC(=O)Nc1cccc(-c2ccnc3c(C(=O)c4cccs4)cnn23)c1)C(C)C", "note": "(stereo not shown) [Example 184, 1-ethyl-2-methylpropyl 3-[3-(thien-2-ylcarbonyl)pyrazolo[1,5-a]pyrimidin-7-yl]phenylcarbamate]", "IC50": "1 to 10"}
{"compound": "Cc1cnc2c(C(=O)c3cccs3)cnn2c1-c1cccc(NC(=O)CC(C)C)c1", "note": "[Example 215, 3-methyl-N-{3-[6-methyl-3-(thien-2-ylcarbonyl)pyrazolo[1,5-a]pyrimidin-7-yl]phenyl}butanamide]", "IC50": "10 to 50"}
{"compound": "CCCCCc1ccc(C(=O)Nc2cccc(-c3ccnc4c(C(=O)c5cccs5)cnn34)c2)cc1", "note": "[Example 92, 4-pentyl-N-{3-[3-(thien-2-ylcarbonyl)pyrazolo[1,5-a]pyrimidin-7-yl]phenyl}benzamide]", "IC50": "10 to 50"}
{"compound": "C#CCC(C)OC(=O)Nc1cccc(-c2ccnc3c(C(=O)c4cccs4)cnn23)c1", "note": "(stereo not shown) [Example 183, 1-methylbut-3-ynyl 3-[3-(thien-2-ylcarbonyl)pyrazolo[1,5-a]pyrimidin-7-yl]phenylcarbamate]", "IC50": "< 1"}
{"compound": "CCCCOC(=O)NCC(=O)Nc1cccc(-c2ccnc3c(C(=O)c4cccs4)cnn23)c1", "note": "[Example 116, butyl 2-oxo-2-({3-[3-(thien-2-ylcarbonyl)pyrazolo[1,5-a]pyrimidin-7-yl]phenyl}amino)ethylcarbamate]", "IC50": "< 1"}
{"compound": "COc1ccc(C(=O)Nc2cccc(-c3ccnc4c(C(=O)c5cccs5)cnn34)c2)cc1OC", "note": "[Example 99, 3,4-dimethoxy-N-{3-[3-(thien-2-ylcarbonyl)pyrazolo[1,5-a]pyrimidin-7-yl]phenyl}benzamide]", "IC50": "1 to 10"}
